Measurements published in PubChem BioAssay (NCI).
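Compound exposure: 48 hours, 5 concentrations, 96-well plates. The concentration for full growth arrest is given as TGI.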

Columns and labels:
Test in all cases: DTP human tumour cell line panel, 48 h
NCI-H522 lung = tested on: NCI-H522 lung
U251 CNS = tested on: U251 CNS
A549 NSCLC = tested on: A549 NSCLC
NCI-H23 lung = tested on: NCI-H23 lung
HT29 colon = tested on: HT29 colon
LXFL 529 NSCLC = tested on: LXFL 529 NSCLC
SF-539 CNS = tested on: SF-539 CNS
SK-MEL-28 melanoma = tested on: SK-MEL-28 melanoma
XF 498 CNS = tested on: XF 498 CNS
K-562 leukemia = tested on: K-562 leukemia
MOLT-4 leukemia = tested on: MOLT-4 leukemia
SF-268 CNS = tested on: SF-268 CNS
COLO 205 colon = tested on: COLO 205 colon
DLD-1 colon = tested on: DLD-1 colon
786-0 renal = tested on: 786-0 renal
SK-MEL-2 melanoma = tested on: SK-MEL-2 melanoma
DMS 114 small cell lung = tested on: DMS 114 small cell lung
M14 melanoma = tested on: M14 melanoma
CCRF-CEM leukemia = tested on: CCRF-CEM leukemia
HCC-2998 colon = tested on: HCC-2998 colon
SK-OV-3 ovarian = tested on: SK-OV-3 ovarian
HL-60(TB) leukemia = tested on: HL-60(TB) leukemia
SNB-78 CNS = tested on: SNB-78 CNS
UO-31 renal = tested on: UO-31 renal
OVCAR-3 ovarian = tested on: OVCAR-3 ovarian
KM12 colon = tested on: KM12 colon
SN12C renal = tested on: SN12C renal
SW-620 colon = tested on: SW-620 colon
NCI-H226 lung = tested on: NCI-H226 lung
HCT-15 colon = tested on: HCT-15 colon
UACC-257 melanoma = tested on: UACC-257 melanoma
RXF 393 renal = tested on: RXF 393 renal
NCI-H460 lung = tested on: NCI-H460 lung
EKVX NSCLC = tested on: EKVX NSCLC
DMS 273 small cell lung = tested on: DMS 273 small cell lung
OVCAR-4 ovarian = tested on: OVCAR-4 ovarian
HOP-62 NSCLC = tested on: HOP-62 NSCLC
SNB-19 CNS = tested on: SNB-19 CNS
UACC-62 melanoma = tested on: UACC-62 melanoma
IGROV1 ovarian = tested on: IGROV1 ovarian
SNB-75 CNS = tested on: SNB-75 CNS
M19-MEL melanoma = tested on: M19-MEL melanoma
TK-10 renal = tested on: TK-10 renal
SK-MEL-5 melanoma = tested on: SK-MEL-5 melanoma
ACHN renal = tested on: ACHN renal
CAKI-1 renal = tested on: CAKI-1 renal
HCT-116 colon = tested on: HCT-116 colon
LOX IMVI melanoma = tested on: LOX IMVI melanoma
MALME-3M melanoma = tested on: MALME-3M melanoma
A498 renal = tested on: A498 renal
OVCAR-5 ovarian = tested on: OVCAR-5 ovarian
KM20L2 colon = tested on: KM20L2 colon
RPMI-8226 leukemia = tested on: RPMI-8226 leukemia
HOP-92 NSCLC = tested on: HOP-92 NSCLC
OVCAR-8 ovarian = tested on: OVCAR-8 ovarian

CSC1C=C(C(C)C)CCC1(C)SC (stereo not given)
TGI (NCI-H522 lung): 31.6 µM | TGI (U251 CNS): 33.7 µM | TGI (A549 NSCLC): 78.4 µM | TGI (NCI-H23 lung): 35.7 µM | TGI (HT29 colon): 29.6 µM | TGI (LXFL 529 NSCLC): 32.9 µM | TGI (SF-539 CNS): 33.6 µM | TGI (SK-MEL-28 melanoma): 34.2 µM | TGI (XF 498 CNS): 33.8 µM | TGI (K-562 leukemia): 40.9 µM | TGI (MOLT-4 leukemia): 40 µM | TGI (SF-268 CNS): 35.1 µM | TGI (COLO 205 colon): 29.7 µM | TGI (DLD-1 colon): 32.4 µM | TGI (786-0 renal): 31.7 µM | TGI (SK-MEL-2 melanoma): 32.8 µM | TGI (DMS 114 small cell lung): 30.6 µM | TGI (M14 melanoma): 32 µM | TGI (CCRF-CEM leukemia): 57 µM | TGI (HCC-2998 colon): 30.9 µM | TGI (SK-OV-3 ovarian): 39.3 µM | TGI (HL-60(TB) leukemia): 27.8 µM | TGI (SNB-78 CNS): 32.3 µM | TGI (UO-31 renal): 27.4 µM | TGI (OVCAR-3 ovarian): 25.2 µM | TGI (KM12 colon): 27.7 µM | TGI (SN12C renal): 30.6 µM | TGI (SW-620 colon): 38 µM | TGI (NCI-H226 lung): 31.6 µM | TGI (HCT-15 colon): 39.9 µM | TGI (UACC-257 melanoma): 29.4 µM | TGI (RXF 393 renal): 29 µM | TGI (NCI-H460 lung): 30.9 µM | TGI (EKVX NSCLC): 44.7 µM | TGI (DMS 273 small cell lung): 33 µM | TGI (OVCAR-4 ovarian): 33.9 µM | TGI (HOP-62 NSCLC): 35.5 µM | TGI (SNB-19 CNS): 36.9 µM | TGI (UACC-62 melanoma): 47.6 µM | TGI (IGROV1 ovarian): 35.5 µM | TGI (SNB-75 CNS): 31.7 µM | TGI (M19-MEL melanoma): 31.3 µM | TGI (TK-10 renal): 41.4 µM | TGI (SK-MEL-5 melanoma): 31.3 µM | TGI (ACHN renal): 32.6 µM | TGI (CAKI-1 renal): 32.4 µM | TGI (HCT-116 colon): 37.1 µM | TGI (LOX IMVI melanoma): 32.5 µM | TGI (MALME-3M melanoma): 26.1 µM | TGI (A498 renal): 40.4 µM | TGI (OVCAR-5 ovarian): 30.5 µM | TGI (KM20L2 colon): 56.8 µM | TGI (RPMI-8226 leukemia): 59.4 µM | TGI (HOP-92 NSCLC): 31.2 µM | TGI (OVCAR-8 ovarian): 35.5 µM
